Experiments:
CYP 2C9 = target: T1, CYP 2C9 (Homo sapiens, UniProt P11712); experiment: CYP450 inhibition assay, pooled human liver microsomes; type: in vitro ADME; conditions: probe tolbutamide
T1 construct: Pooled human liver microsomes (Sekisui Xeno Tech, LLC., Kansas City, KS, USA) were incubated; tissue Sekisui Xeno Tech, LLC; host or cells: pooled human liver microsomes

CYP 2C8 = target: T2, CYP 2C8 (Homo sapiens, UniProt P10632); experiment: as above; conditions: read-out: IC50 CYP 2C8; probe amodiaquine
T2 sequence (P10632 1-490): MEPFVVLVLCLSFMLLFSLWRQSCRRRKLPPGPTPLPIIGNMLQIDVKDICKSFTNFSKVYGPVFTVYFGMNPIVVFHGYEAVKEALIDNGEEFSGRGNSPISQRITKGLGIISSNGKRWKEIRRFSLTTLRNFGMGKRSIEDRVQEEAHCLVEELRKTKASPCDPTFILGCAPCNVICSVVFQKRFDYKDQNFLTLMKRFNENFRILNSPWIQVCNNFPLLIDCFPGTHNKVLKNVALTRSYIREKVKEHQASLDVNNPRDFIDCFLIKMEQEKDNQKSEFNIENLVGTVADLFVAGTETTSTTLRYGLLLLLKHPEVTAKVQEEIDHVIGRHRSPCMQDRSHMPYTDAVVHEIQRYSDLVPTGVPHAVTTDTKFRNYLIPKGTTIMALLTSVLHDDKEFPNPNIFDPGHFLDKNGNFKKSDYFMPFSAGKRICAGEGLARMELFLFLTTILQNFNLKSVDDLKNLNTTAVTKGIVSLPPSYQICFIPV
Experimental: (§1) In the CYP inhibition assay, human liver microsomes were incubated with the Cu(II) complex or reference standard. The inhibitory effects of these compounds were investigated against the major CYP isoforms namely 1A2, 2C9, 2C19, 2D6, 2B6, 2C8 and 3A4 with their respective isoform probe substrates in one reaction mixture (pooled probe substrate format using LC-MS/MS).
(§2) Pooled human liver microsomes (Sekisui Xeno Tech, LLC., Kansas City, KS, USA) were incubated with different concentrations of Cu(II) complex or reference standards in buffer containing 0.1% DMSO for 10 min at 37°C and the residual enzyme activity was measured using pooled probe substrates method by pooled LC-MS/MS. Briefly, incubation mixtures were prepared in a total volume of 200 μL with final component concentrations as follows: 0.1 M potassium phosphate buffer (pH 7.4), 1.5 mM NADPH, and 0.25 mg/ml HLM. […] After 20 min of incubation, the reactions were terminated by addition of 200 μL ice-cold acetonitrile (Rankem, Avantor Performance Materials India Limited, Andhra Pradesh, India) containing telmisartan and carbamazepine as internal standards (all probe substrates and standards were from Sigma Aldrich). Each reaction mixture was centrifuged at 3,500 rpm for 5 min and the supernatant was subjected to LC-MS/MS analysis. The percent inhibition was calculated using the following equation: %Inhibition=100‑[(activityintestwells/activityinbasalcontrolwells)×100]

CYP 2C19 = CYP 2C19 (Homo sapiens, UniProt P33261); experiment: as above; conditions: read-out: IC50 CYP 2C19; probe S-mephenytoin
Chain of CYP 2C19 (P33261 whole entry): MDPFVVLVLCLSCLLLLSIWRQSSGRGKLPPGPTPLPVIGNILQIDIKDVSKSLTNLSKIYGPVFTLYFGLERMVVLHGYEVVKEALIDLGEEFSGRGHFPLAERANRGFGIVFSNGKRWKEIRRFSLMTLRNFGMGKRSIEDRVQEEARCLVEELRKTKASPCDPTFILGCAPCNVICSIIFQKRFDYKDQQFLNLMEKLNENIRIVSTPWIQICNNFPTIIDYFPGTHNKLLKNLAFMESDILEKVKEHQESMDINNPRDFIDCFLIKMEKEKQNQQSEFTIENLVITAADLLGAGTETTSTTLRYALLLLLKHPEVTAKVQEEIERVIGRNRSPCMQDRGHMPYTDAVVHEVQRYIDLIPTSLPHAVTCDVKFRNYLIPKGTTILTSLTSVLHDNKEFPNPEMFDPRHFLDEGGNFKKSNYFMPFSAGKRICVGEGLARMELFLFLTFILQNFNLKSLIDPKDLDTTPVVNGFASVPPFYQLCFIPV
Experimental: as §1, §2

CYP 2B6 = target: T3, CYP 2B6 (Homo sapiens, UniProt P20813); experiment: as above; conditions: read-out: IC50 CYP 2B6; probe bupropion
T3 sequence (P20813 1-491): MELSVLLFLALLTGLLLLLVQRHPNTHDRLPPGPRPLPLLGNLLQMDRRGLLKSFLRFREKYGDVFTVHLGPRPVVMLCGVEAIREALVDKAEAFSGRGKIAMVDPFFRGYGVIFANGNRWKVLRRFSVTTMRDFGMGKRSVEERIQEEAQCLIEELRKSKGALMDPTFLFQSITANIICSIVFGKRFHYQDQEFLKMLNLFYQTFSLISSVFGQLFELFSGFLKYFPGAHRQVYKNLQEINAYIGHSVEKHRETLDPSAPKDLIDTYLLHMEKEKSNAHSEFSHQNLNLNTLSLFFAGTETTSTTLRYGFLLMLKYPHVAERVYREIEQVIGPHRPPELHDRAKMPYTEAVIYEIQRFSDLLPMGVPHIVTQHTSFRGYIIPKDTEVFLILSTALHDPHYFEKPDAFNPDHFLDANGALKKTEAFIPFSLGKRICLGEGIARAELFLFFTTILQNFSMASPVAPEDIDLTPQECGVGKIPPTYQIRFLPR
Experimental: as §1, §2

[1] = tested on: cervical, ovarian, lung, breast, lymphoma, leukemia, colorectal carcinoma and NPC cell lines; set-up: method as in PMID 24549332; conditions: 24 h; HeLa, SKOV3, A549, PC9, MCF7, Namalwa, HL60, SW480, SW48, HCT118, HONE1, HK1, C666-1; cited from earlier work

T1 sequence (P11712 whole entry): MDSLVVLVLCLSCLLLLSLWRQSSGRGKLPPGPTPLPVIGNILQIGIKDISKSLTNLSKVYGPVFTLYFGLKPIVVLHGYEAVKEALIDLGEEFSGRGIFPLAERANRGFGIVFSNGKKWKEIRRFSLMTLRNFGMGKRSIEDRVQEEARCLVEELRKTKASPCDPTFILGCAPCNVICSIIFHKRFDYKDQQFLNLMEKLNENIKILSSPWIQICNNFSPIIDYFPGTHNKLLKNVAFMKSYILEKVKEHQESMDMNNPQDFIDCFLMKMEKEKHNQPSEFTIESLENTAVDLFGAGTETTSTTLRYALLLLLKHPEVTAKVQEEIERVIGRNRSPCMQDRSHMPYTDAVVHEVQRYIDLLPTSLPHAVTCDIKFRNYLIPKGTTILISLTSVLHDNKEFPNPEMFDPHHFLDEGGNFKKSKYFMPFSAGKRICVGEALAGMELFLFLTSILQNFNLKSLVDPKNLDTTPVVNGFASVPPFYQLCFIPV

`CC(C)(N)C(=O)[O-].O.O=[N+]([O-])[O-].[Cu+2].c1cnc2c(c1)ccc1cccnc12` [Cu(II) complex, [Cu(phen)(C-dmg)(H2O)]NO3] gave an IC50 (CYP 2C9) of 8.56 µM, an IC50 (CYP 2C8) of 10.3 µM and an IC50 (CYP 2C19) of 10.3 µM. The IC50 (CYP 2B6) was 7.59 µM and the IC50 [1] was 1.7 to 19 µM.

— paper PMC5766233, “Ternary copper(II) complex: NCI60 screening, toxicity studies, and evaluation of efficacy in xenograft models of nasopharyngeal carcinoma” (PLoS ONE, 2018)
